According to PubChem BioAssay AID248 (DTP/NCI, 2004):
Toxic doses and inconclusive results are not listed.

Test system: L1210 leukemia ip in BDF1 mice, survival T/C
Test: NCI In Vivo Anticancer Drug Screen. Data for tumor model L1210 Leukemia (intraperitoneal) in B6D2F1 (BDF1) mice
Details: endpoint: mean survival time, higher = longer survival
In short: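 Tumor was transplanted into mice, which were then dosed with test compound or vehicle alone. Survival was recorded for each group, and the treated figure was expressed relative to the control figure.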

[1] = dose: 100.0 mg/kg/injection, schedule: Q01DX001 (ip), vehicle: carboxymethylcellulose (CMC)
[2] = dose: 200.0 mg/kg/injection, schedule: Q01DX001 (ip), vehicle: carboxymethylcellulose (CMC)
[3] = dose: 400.0 mg/kg/injection, schedule: Q01DX001 (ip), vehicle: carboxymethylcellulose (CMC)
[4] = dose: 100.0 mg/kg/injection, schedule: Q01DX001 (ip), vehicle: saline
[5] = dose: 200.0 mg/kg/injection, schedule: Q01DX001 (ip), vehicle: saline
[6] = dose: 400.0 mg/kg/injection, schedule: Q01DX001 (ip), vehicle: saline
[7] = dose: 100.0 mg/kg/injection, schedule: Q04DX003 (ip), vehicle: Klucel (hydroxypropylcellulose) (HPC)
[8] = dose: 200.0 mg/kg/injection, schedule: Q04DX003 (ip), vehicle: Klucel (hydroxypropylcellulose) (HPC)
[9] = dose: 400.0 mg/kg/injection, schedule: Q04DX003 (ip), vehicle: Klucel (hydroxypropylcellulose) (HPC)

For `CCOC(=O)CN1N=C([P+](c2ccccc2)(c2ccccc2)c2ccccc2)CC1(c1ccccc1)c1ccccc1`, the T/C (dose: 10.0 mg/kg/injection, schedule: Q01DX001 (ip), vehicle: saline) was 95 % of control, the T/C (dose: 20.0 mg/kg/injection, schedule: Q01DX001 (ip), vehicle: saline) was 96 % of control and the T/C (dose: 40.0 mg/kg/injection, schedule: Q01DX001 (ip), vehicle: saline) was 86 % of control.
With `Cc1cc(C(=O)c2ccccc2)ccc1O` the T/C (dose: 50.0 mg/kg/injection, schedule: Q01DX001 (ip), vehicle: carboxymethylcellulose (CMC)) was 100 % of control, the T/C [1] was 96 % of control and the T/C [2] was 91 % of control. The T/C [3] was 96 % of control.
`CCCN(CCC)CCC(=O)O` was tested, and the T/C (dose: 100.0 mg/kg/injection, schedule: Q01DX009 (ip), vehicle: saline) was 100 % of control, the T/C (dose: 100.0 mg/kg/injection, schedule: Q04DX003 (ip), vehicle: saline) was 97 % of control and the T/C (dose: 200.0 mg/kg/injection, schedule: Q01DX009 (ip), vehicle: saline) was 96 % of control. For the same compound, the T/C (dose: 200.0 mg/kg/injection, schedule: Q04DX003 (ip), vehicle: saline) was 108 % of control, the T/C (dose: 400.0 mg/kg/injection, schedule: Q01DX009 (ip), vehicle: saline) was 102 % of control and the T/C (dose: 400.0 mg/kg/injection, schedule: Q04DX003 (ip), vehicle: saline) was 101 % of control.
`CC(=O)O/N=C(/CCC(=O)O)c1ccccc1` was tested, and the T/C (dose: 50.0 mg/kg/injection, schedule: Q04DX002 (ip), vehicle: saline with Tween-80) was 97 % of control, the T/C (dose: 100.0 mg/kg/injection, schedule: Q04DX002 (ip), vehicle: saline with Tween-80) was 108 % of control and the T/C (dose: 200.0 mg/kg/injection, schedule: Q04DX002 (ip), vehicle: saline with Tween-80) was 94 % of control.
With `[O-][n+]1c(C(Cl)(Cl)Cl)cc(Cl)nc1Cl` the T/C (dose: 100.0 mg/kg/injection, schedule: Q01DX001 (ip), vehicle: Klucel (hydroxypropylcellulose) (HPC)) was 98 % of control and the T/C (dose: 200.0 mg/kg/injection, schedule: Q01DX001 (ip), vehicle: Klucel (hydroxypropylcellulose) (HPC)) was 97 % of control.
In the case of `CCOC(=O)OC(=O)CNC(=O)CN1C(=O)c2ccccc2C1=O`, the T/C [4] is reported as 100 % of control, the T/C [5] is reported as 94 % of control and the T/C [6] is reported as 91 % of control.
In the case of `CCCCOCCCNC(F)(F)C(=O)Nc1ccc(S(=O)(=O)c2ccc(NC(=O)C(F)(F)NCCCOCCCC)cc2)cc1`, the T/C [4] is reported as 113 % of control, the T/C [5] is reported as 97 % of control and the T/C [6] is reported as 94 % of control.
In the case of `OCC1OC(n2cc(I)c3cncnc32)C(O)C1O` (stereo not drawn), the T/C (dose: 12.5 mg/kg/injection, schedule: Q01DX005 (ip), vehicle: saline) is reported as 102 % of control, the T/C (dose: 25.0 mg/kg/injection, schedule: Q01DX005 (ip), vehicle: saline) is reported as 106 % of control and the T/C (dose: 50.0 mg/kg/injection, schedule: Q01DX005 (ip), vehicle: saline) is reported as 106 % of control.
In the case of `CCOC(=O)c1cnc(SC)nc1Nc1ccccc1Br`, the T/C [7] is reported as 92 % of control, the T/C [8] is reported as 97 % of control and the T/C [9] is reported as 98 % of control.
`c1ccc2c3c(cc(C4CCCC4)c2c1)CCCC3` was tested, and the T/C [1] was 88 % of control and the T/C [2] was 91 % of control.
With `COc1cc(C)c(/C=N/NC(=O)c2ccncc2)cc1C` the T/C (dose: 100.0 mg/kg/injection, schedule: Q04DX002 (ip), vehicle: carboxymethylcellulose (CMC)) was 103 % of control, the T/C (dose: 200.0 mg/kg/injection, schedule: Q04DX002 (ip), vehicle: carboxymethylcellulose (CMC)) was 96 % of control and the T/C (dose: 400.0 mg/kg/injection, schedule: Q04DX002 (ip), vehicle: carboxymethylcellulose (CMC)) was 92 % of control.
In the case of `CC1CCCC1OC(=O)c1ccc([N+](=O)[O-])cc1` (stereo not drawn), the T/C [1] is reported as 104 % of control, the T/C [2] is reported as 102 % of control and the T/C [3] is reported as 93 % of control.
`O=C(Oc1ccccc1)c1ccc(Cl)cc1` was tested, and the T/C (dose: 100.0 mg/kg/injection, schedule: Q01DX009 (ip), vehicle: Klucel (hydroxypropylcellulose) (HPC)) was 98 % of control, the T/C [7] was 102 % of control and the T/C (dose: 200.0 mg/kg/injection, schedule: Q01DX009 (ip), vehicle: Klucel (hydroxypropylcellulose) (HPC)) was 95 % of control. The T/C [8] was 101 % of control, the T/C (dose: 400.0 mg/kg/injection, schedule: Q01DX009 (ip), vehicle: Klucel (hydroxypropylcellulose) (HPC)) was 98 % of control and the T/C [9] was 98 % of control.
In the case of `Cc1nc(N)[nH]c(=O)c1CCCN=Cc1cccc([N+](=O)[O-])c1`, the T/C (dose: 12.5 mg/kg/injection, schedule: Q01DX001 (ip), vehicle: Klucel (hydroxypropylcellulose) (HPC)) is reported as 110 % of control, the T/C (dose: 25.0 mg/kg/injection, schedule: Q01DX001 (ip), vehicle: Klucel (hydroxypropylcellulose) (HPC)) is reported as 103 % of control and the T/C (dose: 50.0 mg/kg/injection, schedule: Q01DX001 (ip), vehicle: Klucel (hydroxypropylcellulose) (HPC)) is reported as 97 % of control.
With `[O]=[Sn]([c]1ccccc1)[c]1ccccc1` the T/C (dose: 64.0 mg/kg/injection, schedule: Q04DX002 (ip), vehicle: saline with Tween-80) was 313 % of control.
